Results reported in USRE47193E1, “Selectively substituted quinoline compounds” (EISAI R&D MANAGEMENT CO., LTD., priority 2013, dated 2019).

Molecular target: T1, mouse TLR7 (Mus musculus, UniProt P58681)
T1 sequence (P58681 27-1050): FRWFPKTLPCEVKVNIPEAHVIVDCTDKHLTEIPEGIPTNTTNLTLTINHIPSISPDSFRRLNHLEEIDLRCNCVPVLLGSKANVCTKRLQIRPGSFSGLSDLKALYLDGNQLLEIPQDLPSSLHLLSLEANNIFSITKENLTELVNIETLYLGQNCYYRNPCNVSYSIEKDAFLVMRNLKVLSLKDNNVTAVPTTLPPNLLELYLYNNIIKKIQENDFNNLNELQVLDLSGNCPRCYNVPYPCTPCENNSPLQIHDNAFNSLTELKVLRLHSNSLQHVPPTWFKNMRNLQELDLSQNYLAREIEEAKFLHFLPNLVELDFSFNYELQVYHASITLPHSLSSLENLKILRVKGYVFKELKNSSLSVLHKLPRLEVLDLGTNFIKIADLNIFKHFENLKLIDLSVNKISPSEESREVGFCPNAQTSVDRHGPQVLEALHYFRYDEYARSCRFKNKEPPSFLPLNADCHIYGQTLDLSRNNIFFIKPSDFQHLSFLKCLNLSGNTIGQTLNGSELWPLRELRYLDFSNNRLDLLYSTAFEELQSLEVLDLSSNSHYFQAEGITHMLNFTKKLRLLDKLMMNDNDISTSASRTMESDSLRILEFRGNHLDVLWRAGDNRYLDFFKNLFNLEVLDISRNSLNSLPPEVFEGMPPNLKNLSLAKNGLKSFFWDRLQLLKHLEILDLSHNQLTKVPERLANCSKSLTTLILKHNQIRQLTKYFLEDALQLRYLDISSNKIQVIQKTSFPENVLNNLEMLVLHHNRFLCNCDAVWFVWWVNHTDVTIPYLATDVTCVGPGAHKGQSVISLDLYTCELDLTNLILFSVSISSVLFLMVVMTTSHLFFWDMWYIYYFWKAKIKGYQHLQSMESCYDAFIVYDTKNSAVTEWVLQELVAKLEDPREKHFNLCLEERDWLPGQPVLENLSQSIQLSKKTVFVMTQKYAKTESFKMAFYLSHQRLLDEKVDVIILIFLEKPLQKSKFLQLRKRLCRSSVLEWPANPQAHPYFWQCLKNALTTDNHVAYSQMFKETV
Assay: Short-term in vivo (STIV) assay: oral dosing, R848 s.c., plasma IL-6
Set-up: female BALB/c mice (Jackson Labs, Bar Harbor, Me.) were dosed by oral gavage; tissue Jackson Labs; host or cells: living female BALB/c mice; plasma IL-6 after s.c. R848
Procedure, shortened: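 Female BALB/c mice (6–8 weeks) dosed orally with compound in 0.5% aqueous methyl-cellulose at 33, 100 or 300 mg/kg; at various times afterwards given 15 ug R848 s.c. to stimulate TLR7. Plasma IL-6 measured by ELISA to gauge potency and duration of action.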

## C[C@@H]1CN(c2ccc(C#N)c3ncccc23)C[C@H](C)O1 [ER-878952]
12 h, 200 mg/kg
  % Suppression vs. Vehicle: 93%
12 h, 600 mg/kg
  % Suppression vs. Vehicle: 95%
18 h, 200 mg/kg
  % Suppression vs. Vehicle: 90%
18 h, 600 mg/kg
  % Suppression vs. Vehicle: 96%

## C[C@@H]1CN(c2ccc(C#N)c3ncccc23)C[C@H](CO)O1 [ER-885493, 5-((2R,6R)-2-(hydroxymethyl)-6-methylmorpholino)quinoline-8-carbonitrile]
3 h, 22 mg/kg
  % Suppression vs. Vehicle: 39%
3 h, 67 mg/kg
  % Suppression vs. Vehicle: 86%
3 h, 200 mg/kg
  % Suppression vs. Vehicle: 88%
5 h, 22 mg/kg
  % Suppression vs. Vehicle: 26%
5 h, 67 mg/kg
  % Suppression vs. Vehicle: 99%
5 h, 200 mg/kg
  % Suppression vs. Vehicle: 94%
12 h, 400 mg/kg
  % Suppression vs. Vehicle: 76%
18 h, 22 mg/kg
  % Suppression vs. Vehicle: 0%
18 h, 67 mg/kg
  % Suppression vs. Vehicle: 5%
18 h, 200 mg/kg
  % Suppression vs. Vehicle: 29%

## CC1CN(c2ccc(C#N)c3ncccc23)CC(CN2CCCC2CO)O1 (centres unmarked) [ER-886814]
3 h, 33 mg/kg
  % Suppression vs. Vehicle: 93%
3 h, 100 mg/kg
  % Suppression vs. Vehicle: 100%
3 h, 300 mg/kg
  % Suppression vs. Vehicle: 100%
6 h, 33 mg/kg
  % Suppression vs. Vehicle: 57%
6 h, 100 mg/kg
  % Suppression vs. Vehicle: 100%
6 h, 300 mg/kg
  % Suppression vs. Vehicle: 100%
19 h, 33 mg/kg
  % Suppression vs. Vehicle: 14%
19 h, 100 mg/kg
  % Suppression vs. Vehicle: 19%
19 h, 300 mg/kg
  % Suppression vs. Vehicle: 100%

## C[C@@H]1CN(c2ccc(C#N)c3ncccc23)C[C@H](CN2CC[C@H](O)C2)O1 [ER-886820]
3 h, 33 mg/kg
  % Suppression vs. Vehicle: 93%
3 h, 100 mg/kg
  % Suppression vs. Vehicle: 100%
3 h, 300 mg/kg
  % Suppression vs. Vehicle: 100%
6 h, 33 mg/kg
  % Suppression vs. Vehicle: 68%
6 h, 100 mg/kg
  % Suppression vs. Vehicle: 96%
6 h, 300 mg/kg
  % Suppression vs. Vehicle: 100%
19 h, 33 mg/kg
  % Suppression vs. Vehicle: 43%
19 h, 100 mg/kg
  % Suppression vs. Vehicle: 35%
19 h, 300 mg/kg
  % Suppression vs. Vehicle: 39%

## C[C@@H]1CN(c2ccc(C#N)c3ncccc23)C[C@H](CN2CCC(O)CC2)O1 [ER-886953]
3 h, 33 mg/kg
  % Suppression vs. Vehicle: 99%
3 h, 100 mg/kg
  % Suppression vs. Vehicle: 99%
3 h, 300 mg/kg
  % Suppression vs. Vehicle: 99%
6 h, 33 mg/kg
  % Suppression vs. Vehicle: 99%
6 h, 100 mg/kg
  % Suppression vs. Vehicle: 99%
6 h, 300 mg/kg
  % Suppression vs. Vehicle: 99%
19 h, 33 mg/kg
  % Suppression vs. Vehicle: 23%
19 h, 100 mg/kg
  % Suppression vs. Vehicle: 45%
19 h, 300 mg/kg
  % Suppression vs. Vehicle: 99%

## C[C@@H]1CN(c2ccc(C#N)c3ncccc23)C[C@H](CNC2CCCC2)O1 [ER-887145]
3 h, 33 mg/kg
  % Suppression vs. Vehicle: 97%
3 h, 100 mg/kg
  % Suppression vs. Vehicle: 99%
3 h after oral dose, 11 mg/kg
  % Suppression vs. Vehicle: 67%
6 h, 11 mg/kg
  % Suppression vs. Vehicle: 32%
6 h, 33 mg/kg
  % Suppression vs. Vehicle: 91%
6 h, 100 mg/kg
  % Suppression vs. Vehicle: 99%
19 h, 11 mg/kg
  % Suppression vs. Vehicle: 0%
19 h, 33 mg/kg
  % Suppression vs. Vehicle: 0%
19 h, 100 mg/kg
  % Suppression vs. Vehicle: 96%

## C[C@@H]1CN(C[C@H]2CN(c3ccc(C#N)c4ncccc34)C[C@@H](C)O2)CCN1 [ER-887269]
6 h, 33 mg/kg
  % Suppression vs. Vehicle: 95%
6 h, 100 mg/kg
  % Suppression vs. Vehicle: 100%
6 h, 300 mg/kg
  % Suppression vs. Vehicle: 98%
19 h, 33 mg/kg
  % Suppression vs. Vehicle: 9%
19 h, 100 mg/kg
  % Suppression vs. Vehicle: 58%
19 h, 300 mg/kg
  % Suppression vs. Vehicle: 95%

## C[C@@H]1CN(c2ccc(C#N)c3ncccc23)C[C@H](CN2CCN(C)CC2)O1 [ER-887723]
6 h, 33 mg/kg
  % Suppression vs. Vehicle: 100%
6 h, 100 mg/kg
  % Suppression vs. Vehicle: 100%
6 h, 300 mg/kg
  % Suppression vs. Vehicle: 100%
19 h, 33 mg/kg
  % Suppression vs. Vehicle: 77%
19 h, 100 mg/kg
  % Suppression vs. Vehicle: 97%
19 h, 300 mg/kg
  % Suppression vs. Vehicle: 100%

## CCCN1CCN(C[C@H]2CN(c3ccc(C#N)c4ncccc34)C[C@@H](C)O2)CC1 [ER-887724]
3 h, 33 mg/kg
  % Suppression vs. Vehicle: 99%
3 h, 100 mg/kg
  % Suppression vs. Vehicle: 99%
3 h, 300 mg/kg
  % Suppression vs. Vehicle: 99%
6 h, 33 mg/kg
  % Suppression vs. Vehicle: 99%
6 h, 100 mg/kg
  % Suppression vs. Vehicle: 99%
6 h, 300 mg/kg
  % Suppression vs. Vehicle: 99%
19 h, 33 mg/kg
  % Suppression vs. Vehicle: 83%
19 h, 100 mg/kg
  % Suppression vs. Vehicle: 91%
19 h, 300 mg/kg
  % Suppression vs. Vehicle: 99%

## CC1CN(c2ccc(C#N)c3ncccc23)CC(CN2CCC(N(C)C)CC2)O1 (centres unmarked) [ER-887725]
3 h, 33 mg/kg
  % Suppression vs. Vehicle: 99%
3 h, 100 mg/kg
  % Suppression vs. Vehicle: 99%
3 h, 300 mg/kg
  % Suppression vs. Vehicle: 99%
6 h, 33 mg/kg
  % Suppression vs. Vehicle: 99%
6 h, 100 mg/kg
  % Suppression vs. Vehicle: 99%
6 h, 300 mg/kg
  % Suppression vs. Vehicle: 99%
19 h, 33 mg/kg
  % Suppression vs. Vehicle: 90%
19 h, 100 mg/kg
  % Suppression vs. Vehicle: 91%
19 h, 300 mg/kg
  % Suppression vs. Vehicle: 99%

## C[C@@H]1CN(c2ccc(C#N)c3ncccc23)C[C@H](CN2CCC(N3CCCCC3)CC2)O1 [ER-887927, 5-((2S,6R)-2-([1,4′-bipiperidin]-1′-ylmethyl)-6-methylmorpholino)quinoline-8-carbonitrile]
6 h, 33 mg/kg
  % Suppression vs. Vehicle: 100%
6 h, 100 mg/kg
  % Suppression vs. Vehicle: 100%
6 h, 300 mg/kg
  % Suppression vs. Vehicle: 100%
19 h, 1.22 mg/kg
  % Suppression vs. Vehicle: 56%
19 h, 3.67 mg/kg
  % Suppression vs. Vehicle: 70%
19 h, 11 mg/kg
  % Suppression vs. Vehicle: 94%
19 h, 33 mg/kg
  % Suppression vs. Vehicle: 98%
19 h, 100 mg/kg
  % Suppression vs. Vehicle: 100%
19 h, 300 mg/kg
  % Suppression vs. Vehicle: 100%

## CC(=O)NC1CCN(CC2CN(c3ccc(C#N)c4ncccc34)CC(C)O2)CC1 (centres unmarked) [ER-888288]
3 h, 33 mg/kg
  % Suppression vs. Vehicle: 100%
3 h, 100 mg/kg
  % Suppression vs. Vehicle: 98%
6 h, 33 mg/kg
  % Suppression vs. Vehicle: 78%
6 h, 100 mg/kg
  % Suppression vs. Vehicle: 99%
6 h, 300 mg/kg
  % Suppression vs. Vehicle: 97%
19 h, 33 mg/kg
  % Suppression vs. Vehicle: 50%
19 h, 100 mg/kg
  % Suppression vs. Vehicle: 53%
24 h, 33 mg/kg
  % Suppression vs. Vehicle: 14%
24 h, 100 mg/kg
  % Suppression vs. Vehicle: 0%
24 h, 300 mg/kg
  % Suppression vs. Vehicle: 55%

## CC1CN(c2ccc(C#N)c3ncccc23)CC(CN2CCN(C)CC2C)O1 (centres unmarked) [ER-889556]
3 h, 33 mg/kg
  % Suppression vs. Vehicle: 100%
3 h, 100 mg/kg
  % Suppression vs. Vehicle: 100%
6 h, 33 mg/kg
  % Suppression vs. Vehicle: 100%
6 h, 100 mg/kg
  % Suppression vs. Vehicle: 100%
19 h, 1.22 mg/kg
  % Suppression vs. Vehicle: 44%
19 h, 3.67 mg/kg
  % Suppression vs. Vehicle: 89%
19 h, 11 mg/kg
  % Suppression vs. Vehicle: 29%
19 h, 33 mg/kg
  % Suppression vs. Vehicle: 47%
19 h, 100 mg/kg
  % Suppression vs. Vehicle: 98%

## CC1CN(c2ccc(C#N)c3ncccc23)CC(CN2CCC(NC(=O)C(C)C)CC2)O1 (centres unmarked) [ER-889745]
3 h, 100 mg/kg
  % Suppression vs. Vehicle: 93%
6 h, 33 mg/kg
  % Suppression vs. Vehicle: 94%
6 h, 100 mg/kg
  % Suppression vs. Vehicle: 84%
13 h, 33 mg/kg
  % Suppression vs. Vehicle: 0%
13 h, 100 mg/kg
  % Suppression vs. Vehicle: 99%
13 h, 300 mg/kg
  % Suppression vs. Vehicle: 95%
19 h, 33 mg/kg
  % Suppression vs. Vehicle: 0%
19 h, 100 mg/kg
  % Suppression vs. Vehicle: 52%
24 h, 33 mg/kg
  % Suppression vs. Vehicle: 0%
24 h, 100 mg/kg
  % Suppression vs. Vehicle: 64%
24 h, 300 mg/kg
  % Suppression vs. Vehicle: 100%
